# Measured values reported in patent publication US7462600B2, “Macrolides” (Pfizer Inc, priority 2004, dated 2008).
# Like-named read-outs stand apart in the source and are kept apart here.
# How the values were obtained:
# Format in all cases: cell-based
# [1] = system: Streptococcus pneumoniae 1016; test: MIC, microtiter broth dilution (NCCLS M100-S14), S. pneumoniae 1016 (susceptible)
# Method in brief: (§1)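 DMSO stocks, 40 mg/ml; trays scored for MIC following M100-S14 (NCCLS).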
# [2] = system: Haemophilus influenzae 1218; test: MIC, microtiter broth dilution (NCCLS M100-S14), H. influenzae 1218 (susceptible)
# Method in brief: as §1
# [3] = system: Streptococcus pneumoniae 1095; settings: microtiter broth dilution
# Method in brief: as §1
# [4] = system: Streptococcus pneumoniae 1175; settings: microtiter broth dilution
# Method in brief: as §1
# [5] = system: Streptococcus pyogenes 1079; test: MIC, microtiter broth dilution (NCCLS M100-S14), S. pyogenes 1079 (ermB)
# Method in brief: as §1
# [6] = S. pneumoniae 1016 (susceptible)
# [7] = H. influenzae 1218 (susceptible)
SMILES,MIC S. pneumo. 1016 ([1]; Streptococcus pneumoniae 1016),MIC H. influenzae 1218 ([2]; Haemophilus influenzae 1218),MIC S. pneumo. 1095 ([3]; Streptococcus pneumoniae 1095),MIC S. pneumo. 1175 ([4]; Streptococcus pneumoniae 1175),MIC S. pyogenes 1079 ([5]; Streptococcus pyogenes 1079),"MIC S. pneumo. 1016 [1, 6]","MIC H. influenzae 1218 [2, 7]",MIC S. pneumo. 1095 ([3]; S. pneumoniae 1095 (ermB)),MIC S. pneumo. 1175 ([4]; S. pneumoniae 1175 (mefA)),MIC S. pyogenes 1079 ([5]; S. pyogenes 1079 (ermB))
CCC1OC(=O)C(C)C(=O)C(C)C(OC2OC(C)CC(N(C)C)C2O)C(C)(OC)CC(C)C(=O)C(C)C2N(CC3CN(Cc4cnc5ccccc5n4)C3)C(=O)OC12C (centres unmarked) [4.12],<0.06 µg/mL,1 µg/mL,8 µg/mL,0.12 µg/mL,64 µg/mL,–,–,–,–,–
"CCC1OC(=O)C(C)C(=O)C(C)C(OC2OC(C)CC(N(C)C)C2O)C(C)(OC)CC(C)C(=O)C(C)C2N(C3CN(S(=O)(=O)c4ccc(OC(F)F)c5ncccc45)C3)C(=O)OC12C (centres unmarked) [Example 3.113, 3-descladinosyl-11,12-dideoxy-6-O-methyl-3-oxo-12,11-(oxycarbonyl-(1-(8-(difluoromethoxy)quinoline-5-sulfonyl)-azetidin-3-yl)-imino)-erythromycin A]",<0.063 µg/mL,1 µg/mL,<0.063 µg/mL,<0.063 µg/mL,0.5 µg/mL,–,–,–,–,–
CCC1OC(=O)C(C)C(=O)C(C)C(OC2OC(C)CC(N(C)C)C2O)C(C)(OC)CC(C)C(=O)C(C)C2N(CC3CCCN3C(=O)c3cnn4ccccc34)C(=O)OC12C (centres unmarked) [10.45],–,–,–,–,–,<0.06 µg/mL,1 µg/mL,<0.06 µg/mL,<0.06 µg/mL,>64.00 µg/mL
CCC1OC(=O)C(C)C(=O)C(C)C(OC2OC(C)CC(N(C)C)C2O)C(C)(OC)CC(C)C(=O)C(C)C2N(CC3CCCN3Cc3ccno3)C(=O)OC12C (centres unmarked) [10.01],–,–,–,–,–,<0.06 µg/mL,1 µg/mL,0.25 µg/mL,0.5 µg/mL,>64.00 µg/mL
CCC1OC(=O)C(C)C(=O)C(C)C(OC2OC(C)CC(N(C)C)C2O)C(C)(OC)CC(C)C(=O)C(C)C2N(CC3CCCN3C(=O)c3ccnc4ncsc34)C(=O)OC12C (centres unmarked) [10.44],–,–,–,–,–,<0.06 µg/mL,1 µg/mL,<0.06 µg/mL,0.12 µg/mL,>64.00 µg/mL
CCC1OC(=O)C(C)C(=O)C(C)C(OC2OC(C)CC(N(C)C)C2O)C(C)(OC)CC(C)C(=O)C(C)C2N(CC3CN(Cc4cccnc4)C3)C(=O)OC12C (centres unmarked) [4.04],<0.06 µg/mL,0.5 µg/mL,16 µg/mL,0.25 µg/mL,>64.00 µg/mL,–,–,–,–,–
CCC1OC(=O)C(C)C(=O)C(C)C(OC2OC(C)CC(N(C)C)C2O)C(C)(OC)CC(C)C(=O)C(C)C2N(CC3CN(Cc4cccc5ncccc45)C3)C(=O)OC12C (centres unmarked) [4.15],<0.06 µg/mL,0.25 µg/mL,<0.06 µg/mL,<0.06 µg/mL,32 µg/mL,–,–,–,–,–
CCC1OC(=O)C(C)C(=O)C(C)C(OC2OC(C)CC(N(C)C)C2O)C(C)(OC)CC(C)C(=O)C(C)C2N(CC3CN(C(=O)c4cccnc4)C3)C(=O)OC12C (centres unmarked) [4.03],0.02 µg/mL,1.56 µg/mL,0.39 µg/mL,0.78 µg/mL,>100.00 µg/mL,–,–,–,–,–
"CCC1OC(=O)C(C)C(=O)C(C)C(OC2OC(C)CC(N(C)C)C2O)C(C)(OC)CC(C)C(=O)C(C)C2N(C3CN(S(=O)(=O)c4ccc(F)c(-c5cnco5)c4)C3)C(=O)OC12C (centres unmarked) [Example 3.88, 3-descladinosyl-11,12-dideoxy-6-O-methyl-3-oxo-12,11-(oxycarbonyl-(1-(4-fluoro-3-(oxazol-5-yl)benzenesulfonyl)-azetidin-3-yl)-imino)-erythromycin A]",<0.06 µg/mL,2 µg/mL,<0.06 µg/mL,<0.06 µg/mL,8 µg/mL,–,–,–,–,–
"CCC1OC(=O)C(C)C(=O)C(C)C(OC2OC(C)CC(N(C)C)C2O)C(C)(OC)CC(C)C(=O)C(C)C2N(C3CN(S(=O)(=O)c4ccccc4C#N)C3)C(=O)OC12C (centres unmarked) [Example 3.18, 3-descladinosyl-11,12-dideoxy-6-O-methyl-3-oxo-12,11-(oxycarbonyl-(1-(2-cyanobenzenesulfonyl)-azetidin-3-yl)-imino)-erythromycin A]",<0.06 µg/mL,0.12 µg/mL,1 µg/mL,<0.06 µg/mL,2 µg/mL,–,–,–,–,–
CCC1OC(=O)C(C)C(=O)C(C)C(OC2OC(C)CC(N(C)C)C2O)C(C)(OC)CC(C)C(=O)C(C)C2N(CC3CN(C(=O)c4ccc5cnccc5n4)C3)C(=O)OC12C.O=CO (centres unmarked) [4.41],<0.06 µg/mL,2 µg/mL,0.25 µg/mL,<0.06 µg/mL,>64.00 µg/mL,–,–,–,–,–
CCC1OC(=O)C(C)C(=O)C(C)C(OC2OC(C)CC(N(C)C)C2O)C(C)(OC)CC(C)C(=O)C(C)C2N(C3CN(C(=O)Nc4cc(-c5ccc(F)cc5)n[nH]4)C3)C(=O)OC12C (centres unmarked) [Example 2.07],<0.06 µg/mL,16 µg/mL,4 µg/mL,32 µg/mL,16 µg/mL,–,–,–,–,–
CCC1OC(=O)C(C)C(=O)C(C)C(OC2OC(C)CC(N(C)C)C2O)C(C)(OC)CC(C)C(=O)C(C)C2N(CC3CN(Cc4ccn[nH]4)C3)C(=O)OC12C (centres unmarked) [4.09],<0.06 µg/mL,0.12 µg/mL,32 µg/mL,0.5 µg/mL,>64.00 µg/mL,–,–,–,–,–
"CCC1OC(=O)C(C)C(=O)C(C)C(OC2OC(C)CC(N(C)C)C2O)C(C)(OC)CC(C)C(=O)C(C)C2N(C3CN(Cc4c(OC)cnc5cccnc45)C3)C(=O)OC12C (centres unmarked) [Example 1.101, 3-descladinosyl-11,12-dideoxy-6-O-methyl-3-oxo-12,11-(oxycarbonyl-(1-(3-methoxy-1,5-naphthyridine-4-methyl)-azetidin-3-yl)-imino)-erythromycin A]",<0.063 µg/mL,2 µg/mL,0.125 µg/mL,<0.063 µg/mL,0.25 µg/mL,–,–,–,–,–
CCC1OC(=O)C(C)C(=O)C(C)C(OC2OC(C)CC(N(C)C)C2O)C(C)(OC)CC(C)C(=O)C(C)C2N(CC3CN(Cc4cn5cccnc5n4)C3)C(=O)OC12C (centres unmarked) [4.27],<0.06 µg/mL,1 µg/mL,>64.00 µg/mL,4 µg/mL,>64.00 µg/mL,–,–,–,–,–
"CCC1OC(=O)C(C)C(=O)C(C)C(OC2OC(C)CC(N(C)C)C2O)C(C)(OC)CC(C)C(=O)C(C)C2N(C3CN(S(=O)(=O)c4ccc(S(C)(=O)=O)cc4)C3)C(=O)OC12C (centres unmarked) [Example 3.23, 4-(methylsulfonyl) benzenesulfonyl]",<0.06 µg/mL,1 µg/mL,0.25 µg/mL,<0.06 µg/mL,>64.00 µg/mL,–,–,–,–,–
CCC1OC(=O)C(C)C(=O)C(C)C(OC2OC(C)CC(N(C)C)C2O)C(C)(OC)CC(C)C(=O)C(C)C2N(CC3CCN(Cc4ccno4)C3)C(=O)OC12C (centres unmarked) [13.06],–,–,–,–,–,<0.06 µg/mL,2 µg/mL,>64.00 µg/mL,0.5 µg/mL,>64.00 µg/mL
CCC1OC(=O)C(C)C(=O)C(C)C(OC2OC(C)CC(N(C)C)C2O)C(C)(OC)CC(C)C(=O)C(C)C2N(CC3CCN(C(=O)c4ccc5cnccc5n4)C3)C(=O)OC12C (centres unmarked) [13.09],–,–,–,–,–,<0.06 µg/mL,4 µg/mL,>64.00 µg/mL,1 µg/mL,>64.00 µg/mL
CC[C@H]1OC(=O)[C@H](C)C(=O)[C@H](C)[C@@H](O[C@@H]2O[C@H](C)C[C@H](N(C)C)[C@H]2O)[C@](C)(OC)C[C@@H](C)C(=O)[C@H](C)[C@H]2N(CC3(O)CN(C(=O)c4ccc5nccnc5c4)C3)C(=O)O[C@]12C [7.18],–,–,–,–,–,<0.06 µg/mL,2 µg/mL,0.25 µg/mL,0.25 µg/mL,>64.00 µg/mL
